Results taken from ChEMBL document CHEMBL5724914, “Linking interpersonal differences in gut microbiota composition and drug biotransformation activity” (2024).

Key:
[1] = (§1) The drug is tested on Z-023 corresponding to metagenome with ENA study accession number: PRJEB37062 and ENA sample accession number: ERS12561822 for biotransformation under anaerobic condition. The drug concentrations were measured over 9 timepoints collected between 0 and 24 hours of incubation by liquid-chromatography-coupled mass spectrometry (LC–MS); details: 2 µM
[2] = (§2) The drug is tested on Z-009 corresponding to pig gut metagenome with ENA study accession number: PRJEB37062 and ENA sample accession number: ERS12561809 for biotransformation under anaerobic condition. The drug concentrations were measured over 9 timepoints collected between 0 and 24 hours of incubation by liquid-chromatography-coupled mass spectrometry (LC–MS); details: 2 µM
[3] = as §1, with “Z-004” for “Z-023”, “ERS12561804” for “ERS12561822”; details: 2 µM
[4] = as §2, with “Z-001” for “Z-009”, “mouse” for “pig”, “ERS12561801” for “ERS12561809”; details: 2 µM
[5] = as §2, with “WLS-370” for “Z-009”, “human” for “pig”, “ERS12561793” for “ERS12561809”; details: 2 µM
[6] = as §2, with “WLS-170” for “Z-009”, “human” for “pig”, “ERS12561762” for “ERS12561809”; details: 2 µM
[7] = as §2, with “WLS-090” for “Z-009”, “human” for “pig”, “ERS12561753” for “ERS12561809”; details: 2 µM
[8] = human gut metagenome, 24 h, 2 µM
[9] = human gut metagenome, 24 h, 2 µM; remark: listed apart in the source
[10] = human gut metagenome, 24 h, 2 µM; remark: listed apart in the source
[11] = human gut metagenome, 24 h, 2 µM; remark: listed apart in the source
[12] = human gut metagenome, 24 h, 2 µM; remark: listed apart in the source
[13] = human gut metagenome, 24 h, 2 µM; remark: listed apart in the source
[14] = human gut metagenome, 24 h, 2 µM; remark: listed apart in the source
[15] = human gut metagenome, 24 h, 2 µM; remark: listed apart in the source
[16] = human gut metagenome, 24 h, 2 µM; remark: listed apart in the source
[17] = human gut metagenome, 24 h, 2 µM; remark: listed apart in the source
[18] = human gut metagenome, 24 h, 2 µM; remark: listed apart in the source
[19] = human gut metagenome, 24 h, 2 µM; remark: listed apart in the source
[20] = human gut metagenome, 24 h, 2 µM; remark: listed apart in the source
Further: call rule not given here.

CCN1CCCC1CNC(=O)c1cc(S(=O)(=O)CC)c(N)cc1OC (stereo not given) [AMISULPRIDE]
Bacterial Biotransformation [1]: Compound NOT metabolized | Bacterial Biotransformation [2]: Compound NOT metabolized | Bacterial Biotransformation [3]: Compound NOT metabolized | Bacterial Biotransformation [4]: Compound NOT metabolized | Bacterial Biotransformation [5]: Compound NOT metabolized | Bacterial Biotransformation [6]: Compound metabolized | Bacterial Biotransformation [7]: Compound metabolized | Bacterial Biotransformation [8]: Compound NOT metabolized | Bacterial Biotransformation [9]: Compound NOT metabolized | Bacterial Biotransformation [10]: Compound NOT metabolized | Bacterial Biotransformation [11]: Compound metabolized | Bacterial Biotransformation [12]: Compound NOT metabolized | Bacterial Biotransformation [13]: Compound metabolized | Bacterial Biotransformation [14]: Compound NOT metabolized | Bacterial Biotransformation [15]: Compound NOT metabolized | Bacterial Biotransformation [16]: Compound NOT metabolized | Bacterial Biotransformation [17]: Compound NOT metabolized | Bacterial Biotransformation [18]: Compound NOT metabolized | Bacterial Biotransformation [19]: Compound metabolized | Bacterial Biotransformation [20]: Compound metabolized

CC(C)NCC(O)COc1ccc(CC(N)=O)cc1 (stereo not given) [ATENOLOL]
Bacterial Biotransformation [1]: Compound NOT metabolized | Bacterial Biotransformation [2]: Compound NOT metabolized | Bacterial Biotransformation [3]: Compound NOT metabolized | Bacterial Biotransformation [4]: Compound NOT metabolized | Bacterial Biotransformation [5]: Compound NOT metabolized | Bacterial Biotransformation [6]: Compound metabolized | Bacterial Biotransformation [7]: Compound metabolized | Bacterial Biotransformation [8]: Compound NOT metabolized | Bacterial Biotransformation [9]: Compound NOT metabolized | Bacterial Biotransformation [10]: Compound NOT metabolized | Bacterial Biotransformation [11]: Compound NOT metabolized | Bacterial Biotransformation [12]: Compound NOT metabolized | Bacterial Biotransformation [13]: Compound metabolized | Bacterial Biotransformation [14]: Compound NOT metabolized | Bacterial Biotransformation [15]: Compound NOT metabolized | Bacterial Biotransformation [16]: Compound metabolized | Bacterial Biotransformation [17]: Compound NOT metabolized | Bacterial Biotransformation [18]: Compound NOT metabolized | Bacterial Biotransformation [19]: Compound metabolized | Bacterial Biotransformation [20]: Compound metabolized

CC(=O)OCC(=O)[C@@]1(OC(C)=O)[C@@H](C)C[C@H]2[C@@H]3C[C@H](F)C4=CC(=O)C=C[C@]4(C)[C@@]3(F)[C@@H](O)C[C@@]21C [DIFLORASONE DIACETATE]
Bacterial Biotransformation [1]: Compound NOT metabolized | Bacterial Biotransformation [2]: Compound metabolized | Bacterial Biotransformation [3]: Compound NOT metabolized | Bacterial Biotransformation [4]: Compound metabolized | Bacterial Biotransformation [5]: Compound metabolized | Bacterial Biotransformation [6]: Compound metabolized | Bacterial Biotransformation [7]: Compound metabolized | Bacterial Biotransformation [8]: Compound metabolized | Bacterial Biotransformation [9]: Compound metabolized | Bacterial Biotransformation [10]: Compound metabolized | Bacterial Biotransformation [11]: Compound metabolized | Bacterial Biotransformation [12]: Compound metabolized | Bacterial Biotransformation [13]: Compound metabolized | Bacterial Biotransformation [14]: Compound metabolized | Bacterial Biotransformation [15]: Compound metabolized | Bacterial Biotransformation [16]: Compound metabolized | Bacterial Biotransformation [17]: Compound NOT metabolized | Bacterial Biotransformation [18]: Compound metabolized | Bacterial Biotransformation [19]: Compound metabolized | Bacterial Biotransformation [20]: Compound metabolized

CN(C)CCC=C1c2ccccc2COc2ccccc21 [DOXEPIN]
Bacterial Biotransformation [1]: Compound metabolized | Bacterial Biotransformation [2]: Compound metabolized | Bacterial Biotransformation [3]: Compound NOT metabolized | Bacterial Biotransformation [4]: Compound NOT metabolized | Bacterial Biotransformation [5]: Compound metabolized | Bacterial Biotransformation [6]: Compound metabolized | Bacterial Biotransformation [7]: Compound metabolized | Bacterial Biotransformation [8]: Compound NOT metabolized | Bacterial Biotransformation [9]: Compound metabolized | Bacterial Biotransformation [10]: Compound NOT metabolized | Bacterial Biotransformation [11]: Compound NOT metabolized | Bacterial Biotransformation [12]: Compound NOT metabolized | Bacterial Biotransformation [13]: Compound metabolized | Bacterial Biotransformation [14]: Compound metabolized | Bacterial Biotransformation [15]: Compound NOT metabolized | Bacterial Biotransformation [16]: Compound NOT metabolized | Bacterial Biotransformation [17]: Compound NOT metabolized | Bacterial Biotransformation [18]: Compound NOT metabolized | Bacterial Biotransformation [19]: Compound metabolized | Bacterial Biotransformation [20]: Compound metabolized

C[C@]12CCC(=O)C=C1[C@@H]1C[C@@H]1[C@H]1[C@@H]3[C@@H]4C[C@@H]4[C@@]4(CCC(=O)O4)[C@@]3(C)CC[C@@H]12 [DROSPIRENONE]
Bacterial Biotransformation [1]: Compound metabolized | Bacterial Biotransformation [2]: Compound metabolized | Bacterial Biotransformation [3]: Compound NOT metabolized | Bacterial Biotransformation [4]: Compound NOT metabolized | Bacterial Biotransformation [5]: Compound metabolized | Bacterial Biotransformation [6]: Compound metabolized | Bacterial Biotransformation [7]: Compound NOT metabolized | Bacterial Biotransformation [8]: Compound metabolized | Bacterial Biotransformation [9]: Compound metabolized | Bacterial Biotransformation [10]: Compound NOT metabolized | Bacterial Biotransformation [11]: Compound metabolized | Bacterial Biotransformation [12]: Compound metabolized | Bacterial Biotransformation [13]: Compound metabolized | Bacterial Biotransformation [14]: Compound metabolized | Bacterial Biotransformation [15]: Compound NOT metabolized | Bacterial Biotransformation [16]: Compound metabolized | Bacterial Biotransformation [17]: Compound NOT metabolized | Bacterial Biotransformation [18]: Compound NOT metabolized | Bacterial Biotransformation [19]: Compound metabolized | Bacterial Biotransformation [20]: Compound metabolized

C#C[C@]1(OC(C)=O)CC[C@H]2[C@@H]3CCC4=C[C@@H](OC(C)=O)CC[C@@H]4[C@H]3CC[C@@]21C [ETHYNODIOL DIACETATE]
Bacterial Biotransformation [1]: Compound metabolized | Bacterial Biotransformation [2]: Compound metabolized | Bacterial Biotransformation [3]: Compound metabolized | Bacterial Biotransformation [4]: Compound metabolized | Bacterial Biotransformation [5]: Compound metabolized | Bacterial Biotransformation [6]: Compound metabolized | Bacterial Biotransformation [7]: Compound metabolized | Bacterial Biotransformation [8]: Compound metabolized | Bacterial Biotransformation [9]: Compound metabolized | Bacterial Biotransformation [10]: Compound metabolized | Bacterial Biotransformation [11]: Compound metabolized | Bacterial Biotransformation [12]: Compound metabolized | Bacterial Biotransformation [13]: Compound metabolized | Bacterial Biotransformation [14]: Compound metabolized | Bacterial Biotransformation [15]: Compound metabolized | Bacterial Biotransformation [16]: Compound metabolized | Bacterial Biotransformation [17]: Compound NOT metabolized | Bacterial Biotransformation [18]: Compound metabolized | Bacterial Biotransformation [19]: Compound metabolized | Bacterial Biotransformation [20]: Compound metabolized

CC(C)c1c(CN(C)C(C)Cc2ccccc2)n(C)n(-c2ccccc2)c1=O (stereo not given) [FAMPROFAZONE]
Bacterial Biotransformation [1]: Compound metabolized | Bacterial Biotransformation [2]: Compound metabolized | Bacterial Biotransformation [3]: Compound metabolized | Bacterial Biotransformation [4]: Compound metabolized | Bacterial Biotransformation [5]: Compound metabolized | Bacterial Biotransformation [6]: Compound metabolized | Bacterial Biotransformation [7]: Compound metabolized | Bacterial Biotransformation [8]: Compound metabolized | Bacterial Biotransformation [9]: Compound metabolized | Bacterial Biotransformation [10]: Compound metabolized | Bacterial Biotransformation [11]: Compound metabolized | Bacterial Biotransformation [12]: Compound metabolized | Bacterial Biotransformation [13]: Compound metabolized | Bacterial Biotransformation [14]: Compound metabolized | Bacterial Biotransformation [15]: Compound metabolized | Bacterial Biotransformation [16]: Compound metabolized | Bacterial Biotransformation [17]: Compound metabolized | Bacterial Biotransformation [18]: Compound metabolized | Bacterial Biotransformation [19]: Compound metabolized | Bacterial Biotransformation [20]: Compound metabolized

N=C(N)NC(=O)Cc1c(Cl)cccc1Cl [GUANFACINE]
Bacterial Biotransformation [1]: Compound NOT metabolized | Bacterial Biotransformation [2]: Compound NOT metabolized | Bacterial Biotransformation [3]: Compound NOT metabolized | Bacterial Biotransformation [4]: Compound NOT metabolized | Bacterial Biotransformation [5]: Compound NOT metabolized | Bacterial Biotransformation [6]: Compound NOT metabolized | Bacterial Biotransformation [7]: Compound NOT metabolized | Bacterial Biotransformation [8]: Compound NOT metabolized | Bacterial Biotransformation [9]: Compound NOT metabolized | Bacterial Biotransformation [10]: Compound NOT metabolized | Bacterial Biotransformation [11]: Compound NOT metabolized | Bacterial Biotransformation [12]: Compound NOT metabolized | Bacterial Biotransformation [13]: Compound NOT metabolized | Bacterial Biotransformation [14]: Compound NOT metabolized | Bacterial Biotransformation [15]: Compound NOT metabolized | Bacterial Biotransformation [16]: Compound NOT metabolized | Bacterial Biotransformation [17]: Compound NOT metabolized | Bacterial Biotransformation [18]: Compound NOT metabolized | Bacterial Biotransformation [19]: Compound NOT metabolized | Bacterial Biotransformation [20]: Compound NOT metabolized

Nc1nc(N)nc(-c2cc(Cl)ccc2Cl)n1.O=C(O)/C=C\C(=O)O [IRSOGLADINE MALEATE]
Bacterial Biotransformation [1]: Compound NOT metabolized | Bacterial Biotransformation [2]: Compound NOT metabolized | Bacterial Biotransformation [3]: Compound NOT metabolized | Bacterial Biotransformation [4]: Compound NOT metabolized | Bacterial Biotransformation [5]: Compound NOT metabolized | Bacterial Biotransformation [6]: Compound NOT metabolized | Bacterial Biotransformation [7]: Compound NOT metabolized | Bacterial Biotransformation [8]: Compound NOT metabolized | Bacterial Biotransformation [9]: Compound NOT metabolized | Bacterial Biotransformation [10]: Compound NOT metabolized | Bacterial Biotransformation [11]: Compound NOT metabolized | Bacterial Biotransformation [12]: Compound NOT metabolized | Bacterial Biotransformation [13]: Compound metabolized | Bacterial Biotransformation [14]: Compound NOT metabolized | Bacterial Biotransformation [15]: Compound NOT metabolized | Bacterial Biotransformation [16]: Compound NOT metabolized | Bacterial Biotransformation [17]: Compound NOT metabolized | Bacterial Biotransformation [18]: Compound NOT metabolized | Bacterial Biotransformation [19]: Compound metabolized | Bacterial Biotransformation [20]: Compound NOT metabolized
